PubChem BioAssay (NCI)
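Growth conditions: 96-well plates. Treatment: test compound, 48 hours, 5 concentrations. Analysis: linear interpolation between bracketing concentrations; unreached endpoints set to highest concentration. The concentration for 50% growth inhibition is given as GI50. At the TGI there is no net growth.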

Assays:
Assay in all cases: NCI-60 cell line screen, 48 h; in the data active = GI50 below about 0.43 µM; inactive = the rest
786-0 renal = system: 786-0 renal
A549 NSCLC = system: A549 NSCLC
ACHN renal = system: ACHN renal
BT-549 breast = system: BT-549 breast
CAKI-1 renal = system: CAKI-1 renal
CCRF-CEM leukemia = system: CCRF-CEM leukemia
COLO 205 colon = system: COLO 205 colon
DU-145 prostate = system: DU-145 prostate
EKVX NSCLC = system: EKVX NSCLC
HCC-2998 colon = system: HCC-2998 colon
HCT-116 colon = system: HCT-116 colon
HCT-15 colon = system: HCT-15 colon
HL-60(TB) leukemia = system: HL-60(TB) leukemia
HOP-62 NSCLC = system: HOP-62 NSCLC
HOP-92 NSCLC = system: HOP-92 NSCLC
HS 578T breast = system: HS 578T breast
HT29 colon = system: HT29 colon
IGROV1 ovarian = system: IGROV1 ovarian
K-562 leukemia = system: K-562 leukemia
KM12 colon = system: KM12 colon
LOX IMVI melanoma = system: LOX IMVI melanoma
M14 melanoma = system: M14 melanoma
MALME-3M melanoma = system: MALME-3M melanoma
MCF7 breast = system: MCF7 breast
MDA-MB-231 breast = system: MDA-MB-231 breast
MDA-MB-435 = system: MDA-MB-435
MOLT-4 leukemia = system: MOLT-4 leukemia
NCI-H226 lung = system: NCI-H226 lung
NCI-H23 lung = system: NCI-H23 lung

O=S(=O)(Nc1cc(F)cc(F)c1)c1ccc(-c2cnc(C3CC3)o2)cc1
46.7 µM: TGI (BT-549 breast)
active: GI50 (MDA-MB-435) 0.305 µM
2.09 µM: TGI (MDA-MB-435)
53 µM: TGI (NCI-H226 lung)
12.9 µM: TGI (HT29 colon)
44.2 µM: TGI (HCC-2998 colon)
11.4 µM: TGI (HOP-92 NSCLC)
47.9 µM: TGI (HCT-15 colon)
8.6 µM: TGI (HS 578T breast)
12.3 µM: TGI (COLO 205 colon)
32 µM: TGI (KM12 colon)
inactive: GI50 (786-0 renal) 5.05 µM | GI50 (A549 NSCLC) 3.8 µM | GI50 (ACHN renal) 4.92 µM | GI50 (BT-549 breast) 3.33 µM | GI50 (CAKI-1 renal) 1.19 µM | GI50 (CCRF-CEM leukemia) 2.44 µM | GI50 (COLO 205 colon) 2.08 µM | GI50 (DU-145 prostate) 4.11 µM | GI50 (EKVX NSCLC) 5.31 µM | GI50 (HCC-2998 colon) 5.62 µM | GI50 (HCT-116 colon) 3.04 µM | GI50 (HCT-15 colon) 0.702 µM | GI50 (HL-60(TB) leukemia) 2.12 µM | GI50 (HOP-62 NSCLC) 2.6 µM | GI50 (HOP-92 NSCLC) 1.68 µM | GI50 (HS 578T breast) 1.83 µM | GI50 (HT29 colon) 1.76 µM | GI50 (IGROV1 ovarian) 2.01 µM | GI50 (K-562 leukemia) 0.582 µM | GI50 (KM12 colon) 0.869 µM | GI50 (LOX IMVI melanoma) 4.34 µM | GI50 (M14 melanoma) 1.85 µM | GI50 (MALME-3M melanoma) 2.98 µM | GI50 (MCF7 breast) 1.45 µM | GI50 (MDA-MB-231 breast) 6.46 µM | GI50 (MOLT-4 leukemia) 3.73 µM | GI50 (NCI-H226 lung) 3.88 µM | GI50 (NCI-H23 lung) 4.55 µM
33.6 µM: TGI (HOP-62 NSCLC)
38.4 µM: TGI (CAKI-1 renal)
70.1 µM: TGI (MALME-3M melanoma)
> 100 µM: TGI (786-0 renal) | TGI (A549 NSCLC) | TGI (ACHN renal) | TGI (CCRF-CEM leukemia) | TGI (DU-145 prostate) | TGI (EKVX NSCLC) | TGI (HCT-116 colon) | TGI (IGROV1 ovarian) | TGI (K-562 leukemia) | TGI (LOX IMVI melanoma) | TGI (M14 melanoma) | TGI (MCF7 breast) | TGI (MOLT-4 leukemia)
41.7 µM: TGI (MDA-MB-231 breast)
13.8 µM: TGI (HL-60(TB) leukemia)
